Data as given in patent US7544814B2, “[3.2.0] Heterocyclic compounds and methods of using the same” (Nereus Pharmaceuticals, Inc., priority 2004, dated 2009).
“And” between values parts separate entries of the source, which are not always exact repeats. Equal entries are not always repeated. Where two headings read alike, the source gives them in different places.

What was measured:
[1] = tested on: U266; test: Cell growth inhibition (resazurin), U266; settings: for EC50: 48 hours drug exposure
[2] = tested on: HL-60; test: Cell growth inhibition (resazurin), HL-60; assay type: cell-based, human; settings: for EC50: Table 4, 48 hours drug exposure; for cytotoxic activity against HL-60, in words: from EC50 values
[3] = biological target: T1, trypsin-like activity of purified rabbit muscle 20S proteasome (Oryctolagus cuniculus, UniProt G1SWK8); test: In vitro inhibition of 20S proteasome trypsin-like activity (Boc-LRR-AMC)
T1 sequence (G1SWK8 1-271): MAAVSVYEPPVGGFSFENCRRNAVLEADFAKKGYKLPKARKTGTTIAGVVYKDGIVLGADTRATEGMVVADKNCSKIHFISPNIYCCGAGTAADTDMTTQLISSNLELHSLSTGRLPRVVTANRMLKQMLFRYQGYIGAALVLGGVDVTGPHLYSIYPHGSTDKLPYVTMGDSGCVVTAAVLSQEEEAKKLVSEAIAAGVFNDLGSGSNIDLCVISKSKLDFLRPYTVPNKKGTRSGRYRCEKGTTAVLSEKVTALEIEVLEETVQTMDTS

[4] = biological target: T2, chymotrypsin-like activity of purified rabbit muscle 20S proteasome (Oryctolagus cuniculus, UniProt G1T4Q9); test: In vitro inhibition of 20S proteasome chymotrypsin-like activity (suc-LLVY-AMC)
T2 sequence (G1T4Q9 1-263): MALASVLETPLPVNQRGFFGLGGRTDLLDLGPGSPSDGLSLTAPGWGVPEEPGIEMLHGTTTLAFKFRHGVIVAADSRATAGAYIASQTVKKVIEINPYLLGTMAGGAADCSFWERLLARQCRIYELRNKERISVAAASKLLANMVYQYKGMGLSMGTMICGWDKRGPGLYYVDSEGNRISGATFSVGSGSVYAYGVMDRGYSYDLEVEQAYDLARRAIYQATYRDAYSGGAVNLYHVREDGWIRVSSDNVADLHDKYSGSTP

[5] = tested on: NCI-H292; test: Cell growth inhibition (resazurin), NCI-H292; settings: from EC50 values
[6] = tested on: NF-κB; test: NF-κB-mediated luciferase reporter gene assay, HEK293 NF-κB/Luc cells, TNF-α stimulation; assay type: cell-based, human; settings: for EC50: 1 hr pretreatment, TNF-α 6 hr; for effect on luciferase activity upon TNF-α stimulation, in words: pretreatment of NF-κB/Luc 293 cells
Procedure: The HEK293 NF-κB/luciferase reporter cell line is a derivative of the human embryonic kidney cell line (ATCC; CRL-1573) and carries a luciferase reporter gene under the regulation of 5× NF-κB binding sites. […] When performing the luciferase assay, the DMEM basal medium was replaced with phenol-red free DMEM basal medium and the G418 was omitted.
For NF-κB-mediated luciferase assays, HEK293 NF-κB/luciferase cells were seeded at 1.5×10^4 cells/well in 90 μl phenol-red free DMEM complete medium into Corning 3917 white opaque-bottom tissue culture plates. For Formula II-2, Formula II-4, Formula II-5A, and Formula II-18, a 400 μM starting dilution was made in 100% DMSO and this dilution was used to generate a 8-point half log dilution series. […] For Formula II-20, a 2.5 mM or 8 mM starting solution was made in 100% DMSO and the final test concentrations ranged from 6.3 μM to 2.0 nM or 20 μM to 6.3 nM, respectively. The plates were returned to the incubator for 1 hour. After 1 hr pretreatment, 10 μl of a 50 ng/ml TNF-α solution, prepared in the phenol-red free DMEM medium was added, and the plates were incubated for an additional 6 hr.
At the end of the TNF-α stimulation, 100 μl of Steady Lite HTS luciferase reagent (Packard Bioscience) was added to each well and the plates were left undisturbed for 10 min at room temperature before measuring the luciferase activity. The relative luciferase units (RLU) were measured by using a Fusion microplate fluorometer (Packard Bioscience).

[7] = tested on: OVCAR-3; test: Cell growth inhibition (resazurin), OVCAR-3
[8] = tested on: HL-60/MX2; test: Cell growth inhibition (resazurin), multidrug resistant HL-60/MX2; settings: from EC50 values
Procedure: Concentrations ranging from 6.32 μM to 2 nM were tested for II-2 and II-4.
HL-60/MX2 is a multidrug resistant tumor cell line derived from the human promyelocytic leukemia cell line, HL-60 and expresses reduced topoisomerase II activity. […] Mitoxantrone, the topoisomerase II targeting agent was included as a control.

[9] = tested on: MES-SA/Dx5; test: Cell growth inhibition (resazurin), multidrug resistant MES-SA/Dx5; assay type: cell-based, human; settings: from EC50 values
[10] = tested on: B16-F10
[11] = tested on: HT-29; test: Cell growth inhibition (resazurin), HT-29; settings: for cytotoxicity against HT-29, in words: from EC50 values
[12] = biological target: T3, caspase-like activity of purified rabbit muscle 20S proteasome (Oryctolagus cuniculus, UniProt A0A5F9DQW2); test: In vitro inhibition of 20S proteasome caspase-like activity (Z-LLE-AMC)
T3 sequence (A0A5F9DQW2 1-212): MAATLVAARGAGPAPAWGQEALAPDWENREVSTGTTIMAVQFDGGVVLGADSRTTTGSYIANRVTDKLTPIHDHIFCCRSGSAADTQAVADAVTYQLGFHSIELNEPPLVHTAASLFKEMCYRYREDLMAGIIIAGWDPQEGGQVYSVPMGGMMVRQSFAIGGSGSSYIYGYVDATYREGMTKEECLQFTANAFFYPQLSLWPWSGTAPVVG

[13] = tested on: B16-F10; test: Cell growth inhibition (resazurin), B16-F10; settings: 48 hours drug exposure, mean ± SD where n≥3
[14] = tested on: RPMI 8226; test: Cell growth inhibition (resazurin), RPMI 8226; settings: for EC50: 48 hours drug exposure; for cytotoxicity against RPMI 8226, in words: from EC50 values
[15] = tested on: PC-3; test: Cell growth inhibition (resazurin), PC-3; assay type: cell-based, human; settings: from EC50 values
[16] = tested on: MDA-MB-231; test: Cell growth inhibition (resazurin), MDA-MB-231; settings: for EC50: Homo sapiens, MDA-MB-231, 48 h, read-out: EC50 against MDA-MB-231; for cytotoxicity against MDA-MB-231, in words: from EC50 values
[17] = tested on: MES-SA; test: Cell growth inhibition (resazurin), MES-SA; assay type: cell-based, human; settings: for cytotoxic activity against MES-SA, in words: from EC50 values
[18] = tested on: U266
[19] = biological target: T1, trypsin-like activity of purified rabbit muscle 20S proteasome; test: biochemical
[20] = EC50 values, chymotrypsin-like activity
[21] = Homo sapiens, RPMI-8226, 48 h, read-out: RPMI 8226 EC50, Table 2, mean ± SD where n≥3
[22] = read-out: RPMI 8226 EC50, Table 2, mean ± SD where n≥3

SMILES	EC50 ([1]; read-out: U266 EC50, Table 2) [nM]	EC50 ([2]; Homo sapiens, HL-60, 48 h) [nM]	cytotoxic activity against HL-60, in words [2]	EC50 [4, 20] [nM]	cytotoxicity against NCI-H292, in words [5]	effect on luciferase activity upon TNF-α stimulation, in words [6]	cytotoxic activity against HL-60/MX2, in words [8]	cytotoxicity against B16-F10, in words [10]	cytotoxicity against HT-29, in words [11]	EC50 [14, 21] [nM]	cytotoxicity against RPMI 8226, in words [14]	EC50 [14, 22] [nM]	cytotoxicity against PC-3, in words [15]	EC50 [16] [nM]	cytotoxicity against MDA-MB-231, in words [16]	cytotoxic activity against MES-SA, in words [17]	further results
C[C@@]12OC(=O)[C@]1([C@@H](O)C1CCCCC1)NC(=O)[C@@H]2CCCl [Formula II-2]	32	237	retained cytotoxic activity	13 to 88	cytotoxic	dose-dependent decrease	retained cytotoxic activity	cytotoxic	cytotoxic	49	cytotoxic	45	cytotoxic	121 ± 23	cytotoxic	cytotoxic activity	EC50 ([1]; Homo sapiens, U-266, 48 h, read-out: U266 EC50, Table 2): 39 nM; EC50 [2]: 176 nM; inhibition of the trypsin-like activity of the 20S proteasome, in words ([3]; under the conditions tested): able to inhibit; EC50 ([4]; read-out: EC50 Chymotrypsin-like): 19 nM; EC50 ([6]; Homo sapiens, HEK293, read-out: EC50, NF-κB-mediated luciferase reporter gene assay, Table 5, values in nM): 71 ± 20 nM; cytotoxicity against OVCAR-3, in words ([7]; from EC50 values): cytotoxic; cytotoxic activity against MES-SA/Dx5, in words [9]: cytotoxic activity; EC50 ([11]; Homo sapiens, HT-29, 48 h, read-out: EC50 against HT-29): 129 ± 21 nM; EC50 ([12]; EC50 Caspase-like, Table 6, values in μM): 1.3 µM and 1.7 µM; EC50 ([12]; EC50 values, caspase-like activity, range in mixed units, summary of Table 6, range from nM to μM): 0.956 to 8.7 µM; EC50 ([13]; Mus musculus, B16-F10, 48 h, read-out: EC50 against B16-F10, Table 1): 194 nM; EC50 ([13]; read-out: EC50 against B16-F10, Table 1): 180 nM; EC50 ([14]; Homo sapiens, RPMI-8226, 48 h, read-out: EC50 against RPMI 8226, Table 1): 49 nM; cytotoxicity against U266, in words [18]: cytotoxic
C[C@@]12OC(=O)[C@]1([C@@H](O)C1CCCCC1)NC(=O)[C@@H]2CCBr [Formula II-4]	34	143	retained cytotoxic activity	13 to 88	cytotoxic	dose-dependent decrease	retained cytotoxic activity	cytotoxic	cytotoxic	57	cytotoxic	51	cytotoxic	114 ± 4	cytotoxic	cytotoxic activity	cytotoxicity against U266, in words ([1]; from EC50 values): cytotoxic; inhibition of the trypsin-like activity of the 20S proteasome, in words [3]: able to inhibit; EC50 ([3]; read-out: EC50 Trypsin-like): 110 nM; EC50 ([4]; EC50 Chymotrypsin-like, Table 6, values in nM): 13 nM; EC50 ([6]; Homo sapiens, HEK293, Table 5, values printed in nM, read-out: EC50, NF-κB-mediated luciferase reporter gene assay): 67 nM; EC50 ([6]; read-out: EC50, NF-κB-mediated luciferase reporter gene assay, Table 5, values in nM): 88 nM; EC50 ([7]; Homo sapiens, OVCAR-3, 48 h, read-out: EC50 against OVCAR-3): > 6320 nM; EC50 [19]: 107 nM; EC50 ([12]; EC50 Caspase-like, Table 6, values in nM): 0.85 µM and 0.637 µM; EC50 ([12]; EC50 values, caspase-like activity, summary of Table 6): 0.213 to 0.85 µM; EC50 ([17]; Homo sapiens, MES-SA, 48 h, Table 3, 48 hours drug exposure): 140 nM
